Source: US20120076781A1, “METHODS OF TREATING CANCERS WITH HER3 ANTISENSE OLIGONUCLEOTIDES” (ENZON PHARMACEUTICALS, INC., priority 2009, published 2012)
Marks after values point to notes of the source that are not given here. In the oligonucleotide strings, read from the 5' end, every base follows the letter of its sugar. An asterisk marks phosphorothioate; unmarked linkages are phosphodiester. Other units and linkages are bracketed, terminal groups are in braces. A string of capitals states the bases alone. l = locked nucleic acid (LNA); [5mC] = 5-methylcytosine; d = 2'-deoxy (DNA)

What was measured:
[1] = system: HCC827R gefitinib resistant cells; test: Cell proliferation of HCC827R cells under gefitinib (MTT assay); assay type: cell-based, human; conditions: highest concentration tested 10 μM
Description: HCC827 lung adenocarcinoma cells (ATCC CRL-2868) were maintained at 37° C. in a humidified atmosphere of 5% CO2 and 95% air in RPMI medium supplemented with 10% fetal bovine serum. To generate gefitinib resistance, cells were treated with increasing amounts of gefitinib (up to 500 nM) for a period of 3 months.

[2] = system: human HER3 mRNA; test: Down-regulation of HER3 mRNA in transfected HUH-7 cells, real-time PCR; assay type: cell-based; conditions: 25 nM, HUH-7 cells (indicated by *)
Description: HUH7: The human hepatocarcinoma cell line was cultured in DMEM (Sigma)+10% fetal bovine serum (FBS)+2 mM Glutamax I+gentamicin (25 μg/ml)+1× Non Essential Amino Acids.
The cells were treated with oligonucleotides using the cationic liposome formulation LipofectAMINE 2000 (Gibco) as transfection vehicle. Cells were seeded in 6-well cell culture plates (NUNC) and treated when 80-90% confluent. Oligomer concentrations ranged from 1 nM to 25 nM final concentration. Formulation of oligomer-lipid complexes was carried out essentially as described by the manufacturer using serum-free OptiMEM (Gibco) and a final lipid concentration of 5 μg/mL LipofectAMINE 2000. […]
(§1) The sample content of human HER3, EGFR and HER2 mRNA was quantified using the human HER3, EGFR and HER2 ABI Prism Pre-Developed TaqMan Assay Reagents (Applied Biosystems cat. no. Hs00951444_ml (HER3), Hs00193306_ml (EGFR) and Hs00170433_ml (HER2) according to the manufacturer's instructions.
Glyceraldehyde-3-phosphate dehydrogenase (GAPDH) mRNA quantity was used as an endogenous control for normalizing any variance in sample preparation. The sample content of human GAPDH mRNA was quantified using the human GAPDH ABI Prism Pre-Developed TaqMan Assay Reagent (Applied Biosystems cat. no. 4310884E) according to the manufacturer's instructions. […]

[3] = system: Mouse HER3 mRNA; test: HER3 mRNA knockdown in liver of nude mice bearing 15PC3 xenografts, qd x 5 (qRT-PCR); assay type: in vivo; conditions: i.v.
Description: (§2) To evaluate the knockdown efficacy of the HER3 oligomeric compounds in vivo, the female nude mice bearing 15PC3 xenografts developed by subcutaneous injection of 5×10^6 cells/mouse into the right axillary flank, were injected intravenously with the oligomers at various doses and injection schedules (i.e. single dose, qd, q3d, q4d). Scrambled oligomer SEQ ID NO: 236 served as a negative control. 24 hours after the last injection, the mice were euthanized and liver and tumor tissues were collected in RNAlater solution (Ambion). Total RNA was purified from the tissues and the levels of HER3 mRNA were determined by quantitative reverse transcription-real time PCR (qRT-PCR) using the QuantiTect Probe RT-PCR kit (Cat#: 204443; Qiagen). GAPDH mRNA served as an internal control.
(§3) 200 ng of total RNA was used in the PCR reaction. The data analyses were performed by using the ABI-7500 PCR Fast System included software.
(§4) Data in Table 5 are presented as % HER3 mRNA levels relative to saline treated controls in liver and tumor samples after i.v. dosing of animals on 5 consecutive days with oligonucleotides in the doses indicated.

[4] = system: human HER3 mRNA; test: HER3 mRNA knockdown in 15PC3 xenograft tumor in nude mice, qd x 5 (qRT-PCR); assay type: in vivo; conditions: i.v., relative to saline controls
Description: as §2, §3, §4

[5] = system: HER3 mRNA; test: HER3 mRNA knockdown in 15PC3 xenograft tumor, different dosing cycle; assay type: in vivo, human; conditions: every third day
Description: as §2
(§5) The knockdown efficacy of oligomers was evaluated in vivo in nude mice bearing xenograft tumors derived from 15PC3 cells or A549 cells (NSCLC) or N87 cells (gastric carcinoma) using a similar protocol to the one described above in Example 11. Oligomers were administered by injection every third day in 2-4 doses. Tissues were harvested 3 or 4 days after the last injection.
(§6) Data in Tables 6 and 7 are presented as % HER3 mRNA or HIF-1 alpha mRNA relative to saline treated controls in liver and tumor samples after i.v. dosing of animals with the indicated oligomers.

[6] = system: HIF-1 alpha mRNA; test: HIF-1 alpha mRNA in 15PC3 xenograft tumor, different dosing cycle; assay type: in vivo, human; conditions: every third day
Description: as §2, §5, §6

[7] = system: HER3 mRNA; test: HER3 mRNA knockdown in liver of xenograft-bearing nude mice, different dosing cycle; assay type: in vivo, mouse; conditions: for Liver HER3 mRNA relative to saline treated controls: 15PC3 xenograft mice, every third day
Description: as §2
The knockdown efficacy of oligomers was evaluated in vivo in nude mice bearing xenograft tumors derived from 15PC3 cells or A549 cells (NSCLC) or N87 cells (gastric carcinoma) using a similar protocol to the one described above in Example 11. […] Tissues were harvested 3 or 4 days after the last injection.
as §6

[8] = system: HER3 mRNA; test: HER3 mRNA knockdown in A549 (NSCLC) xenograft tumor; assay type: in vivo, human; conditions: 35 mg/kg, q4d x 3, i.v.
Description: as §2, §5, §6

[9] = system: human EGFR mRNA; test: Down-regulation of EGFR mRNA in transfected 15PC3 cells, real-time PCR; assay type: cell-based; conditions: 25 nM
Description: (§7) 15PC3: The human prostate cancer cell line 15PC3 was cultured in DMEM (Sigma)+10% fetal bovine serum (FBS)+2 mM Glutamax I+gentamicin (25 μg/ml).
(§8) The cells were treated with oligonucleotides using the cationic liposome formulation LipofectAMINE 2000 (Gibco) as transfection vehicle. Cells were seeded in 6-well cell culture plates (NUNC) and treated when 80-90% confluent. Oligomer concentrations ranged from 1 nM to 25 nM final concentration. Formulation of oligomer-lipid complexes was carried out essentially as described by the manufacturer using serum-free OptiMEM (Gibco) and a final lipid concentration of 5 μg/mL LipofectAMINE 2000. Cells were incubated at 37° C. for 4 hours and treatment was stopped by removal of oligomer-containing culture medium. Cells were washed and serum-containing medium was added. After oligomer treatment, cells were allowed to recover for 20 hours before they were harvested for RNA analysis.
(§9) Total RNA was extracted from cells transfected as described above and using the Qiagen RNeasy kit (Qiagen cat. no. 74104) according to the manufacturer's instructions. First strand synthesis was performed using Reverse Transcriptase reagents from Ambion according to the manufacturer's instructions.
(§10) For each sample 0.5 μg total RNA was adjusted to (10.8 μl) with RNase free H2O and mixed with 2 μl random decamers (50 μM) and 4 μl dNTP mix (2.5 mM each dNTP) and heated to 70° C. for 3 min after which the samples were rapidly cooled on ice. After cooling the samples on ice, 2 μl 10× Buffer RT, 1 μl MMLV Reverse Transcriptase (100 U/μl) and 0.25 μl RNase inhibitor (10 U/μl) was added to each sample, followed by incubation at 42° C. for 60 min, heat inactivation of the enzyme at 95° C. for 10 min, and then cooling the sample to 4° C.
as §1
(§11) Glyceraldehyde-3-phosphate dehydrogenase (GAPDH) mRNA quantity was used as an endogenous control for normalizing any variance in sample preparation. The sample content of human GAPDH mRNA was quantified using the human GAPDH ABI Prism Pre-Developed TaqMan Assay Reagent (Applied Biosystems cat. no. 4310884E) according to the manufacturer's instructions.
(§12) The cDNA from the first strand synthesis performed as described in Example 5 was diluted 2-20 times, and analyzed by real time quantitative PCR using Taqman 7500 FAST or 7900 FAST from Applied Biosystems. The primers and probe were mixed with 2× Taqman Fast Universal PCR master mix (2×) (Applied Biosystems Cat. #4364103) and added to 4 μl cDNA to a final volume of 10 μl. Each sample was analysed in duplicate. Assaying 2-fold dilutions of a cDNA that had been prepared on material purified from a cell line expressing the RNA of interest generated standard curves for the assays. Sterile H2O was used instead of cDNA for the no-template control. PCR program: 95° C. for 30 seconds, followed by 40 cycles of 95° C., 3 seconds, 60° C., 20-30 seconds. Relative quantities of target mRNA sequence were determined from the calculated Threshold cycle using the Applied Biosystems Fast System SDS Software Version 1.3.1.21. or SDS Software Version 2.3.
(§13) Oligonucleotides presented in Table 4 were evaluated for their potential to down-regulate HER3, EGFR and HER2 mRNA at concentrations of 1, 5 and 25 nM in 15PC3 cells (or HUH-7 as indicated by *) (see FIGS. 2, 3, 4 and 5). SEQ ID NOs: 235 and 236 were used as scrambled controls.
(§14) The data in Table 4 are presented as percentage down-regulation of mRNA relative to mock transfected cells at 25 nM. Lower-case letters represent DNA monomers, bold, upper-case letters represent β-D-oxy-LNA monomers. All cytosines in LNA monomers are 5-methylcytosines. Subscript “s” represents a phosphorothioate linkage.

[10] = system: human HER2 mRNA; test: Down-regulation of HER2 mRNA in transfected 15PC3 cells, real-time PCR; assay type: cell-based; conditions: 25 nM
Description: as §7, §8, §9, §10, §1, §11, §12, §13, §14

## COc1cc2ncnc(Nc3ccc(F)c(Cl)c3)c2cc1OCCCN1CCOCC1 [gefitinib]
[1]
  cell proliferation of HCC827R cells under gefitinib: resistant to gefitinib even at the highest concentration tested

## CSASTScSaScStScStSgSgStSgSTSGST (l[5mC]*lA*lT*dC*dA*dC*dT*dC*dT*dG*dG*dT*dG*lT*lG*lT; antisense) [SEQ ID NO: 195]
[2]
  HER3: percentage down-regulation of mRNA relative to mock transfected cells: 64.4%*

## CSGSCSASgSaStStSaSgSaSaSASCSCSt (l[5mC]*lG*l[5mC]*lA*dG*dA*dT*dT*dA*dG*dA*dA*lA*l[5mC]*l[5mC]*dT) [SEQ ID NO: 236, scrambled oligomer, negative control, reference compound]
[3]; 22.9 mg/kg
  HER3 mRNA Liver: 81.4 ± 6.5 % of Sal ctrl
[3]; 30 mg/kg
  HER3 mRNA Liver: 87.6 ± 19 % of Sal ctrl
[3]; 60 mg/kg
  HER3 mRNA Liver: 86.5 ± 9.9 % of Sal ctrl
[3]; 76.3 mg/kg
  HER3 mRNA Liver: 78 ± 17 % of Sal ctrl
[4]; 22.9 mg/kg
  HER3 mRNA Tumor: 119.3 ± 24.9%
[4]; 30 mg/kg
  HER3 mRNA Tumor: 101.2 ± 21.1%
[4]; 60 mg/kg
  HER3 mRNA Tumor: 95.5 ± 12.7%
[4]; 76.3 mg/kg
  HER3 mRNA Tumor: 100 ± 10.5%
[5]; 76.3 x 4 mg/kg i.v.
  Tumor HER3 mRNA relative to saline treated controls: 106 ± 6.6%
[6]; 76.3 x 4 mg/kg i.v.
  Tumor Hif1A mRNA relative to saline treated controls: 101 ± 13.8%
[7]; 76.3 x 4 mg/kg i.v.
  Liver HER3 mRNA relative to saline treated controls: 115.9 ± 26.3%
[7]; A549 xenograft mice, 35 mg/kg, q4d x 3, i.v.
  HER3 Liver: 97.5 ± 21.2 % saline control
[8]
  HER3 Tumor: 87.6 ± 11.9 % saline control

## GSCSTScScSaSgSaScSaStScSaSCSTSC (antisense lG*l[5mC]*lT*dC*dC*dA*dG*dA*dC*dA*dT*dC*dA*l[5mC]*lT*l[5mC]) [SEQ ID NO: 169, β-D-oxy-LNA/DNA phosphorothioate gapmer antisense oligonucleotide targeting HER3]
[9]
  EGFR: percentage down-regulation of mRNA relative to mock transfected cells: 95.2%
[10]
  HER2: percentage down-regulation of mRNA relative to mock transfected cells: 75.8%
[3]; 11.3 mg/kg
  HER3 mRNA Liver: 10.2 ± 5.5 % of Sal ctrl
[3]; 37.7 mg/kg
  HER3 mRNA Liver: 20.7 ± 9.8 % of Sal ctrl
[4]; 37.7 mg/kg
  HER3 mRNA Tumor: 77 ± 10%
[5]; 37.7 x 4 mg/kg i.v.
  Tumor HER3 mRNA relative to saline treated controls: 81.6 ± 12.7%
[6]; 37.7 x 4 mg/kg i.v.
  Tumor Hif1A mRNA relative to saline treated controls: 94.6 ± 19.6%
[7]; 37.7 x 4 mg/kg i.v.
  Liver HER3 mRNA relative to saline treated controls: 39 ± 4.6%
